Measurements: BindingDB's records for doi:10.1021/jm400664x (Washington University, 2013)

Target: T1, Vesicular acetylcholine transporter (Homo sapiens, UniProt Q16572)
T1 sequence (Q16572 whole entry): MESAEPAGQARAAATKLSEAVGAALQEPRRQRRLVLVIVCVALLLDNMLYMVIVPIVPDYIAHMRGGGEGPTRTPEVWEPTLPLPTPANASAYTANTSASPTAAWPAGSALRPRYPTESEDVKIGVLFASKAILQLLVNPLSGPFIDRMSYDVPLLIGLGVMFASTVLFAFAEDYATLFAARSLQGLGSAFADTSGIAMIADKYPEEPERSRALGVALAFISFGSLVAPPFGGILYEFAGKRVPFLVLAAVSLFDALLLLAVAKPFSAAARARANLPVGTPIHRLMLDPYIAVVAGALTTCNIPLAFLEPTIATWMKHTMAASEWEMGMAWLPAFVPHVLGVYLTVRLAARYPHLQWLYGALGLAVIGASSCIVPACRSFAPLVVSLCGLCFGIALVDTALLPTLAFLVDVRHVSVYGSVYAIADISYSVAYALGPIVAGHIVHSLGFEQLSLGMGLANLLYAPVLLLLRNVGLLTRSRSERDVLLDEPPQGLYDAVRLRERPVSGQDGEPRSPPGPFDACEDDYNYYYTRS
Experiment: Displacement of (-)-[3H]vesamicol from human VAChT expressed in rat PC12 cell membrane after 20 hrs

Compound | Ki [nM]
O=C(c1cccnc1F)C1CCN([C@@H]2Cc3ccccc3C[C@H]2O)CC1 | 13
Cn1cccc1C(=O)C1CCN([C@@H]2Cc3c(N)cccc3C[C@H]2O)CC1 | 39
O=C(c1ccc(OCCF)nc1)C1CCN([C@@H]2Cc3ccccc3C[C@H]2O)CC1 | 38
COc1cccnc1C(=O)C1CCN([C@@H]2Cc3ccccc3C[C@H]2O)CC1 | 121
CN(C)c1ccc(C(=O)C2CCN([C@@H]3Cc4ccccc4C[C@H]3O)CC2)cc1 | 0.93
Cn1ccc(C(=O)C2CCN([C@@H]3Cc4ccccc4C[C@H]3O)CC2)cc1=O | 66
Cn1ccc(C(=O)C2CCN([C@@H]3Cc4ccccc4C[C@H]3O)CC2)c1 | 27
Cn1cccc1C(=O)C1CCN([C@@H]2Cc3ccccc3C[C@H]2O)CC1 | 18
O=C(c1cccnc1)C1CCN([C@@H]2Cc3ccccc3C[C@H]2O)CC1 | 24
Cn1c(C(=O)C2CCN([C@@H]3Cc4ccccc4C[C@H]3O)CC2)cccc1=O | 182
Cn1cccc1C(=O)C1CCN([C@@H]2Cc3cccc(N)c3C[C@H]2O)CC1 | 2310
O=C(c1cncc(F)c1)C1CCN([C@@H]2Cc3ccccc3C[C@H]2O)CC1 | 10
O=C(c1ccc(F)nc1)C1CCN([C@@H]2Cc3ccccc3C[C@H]2O)CC1 | 26
CNc1ccc(C(=O)C2CCN([C@@H]3Cc4ccccc4C[C@H]3O)CC2)cc1 | 3
O=C(c1ncccc1OCCF)C1CCN([C@@H]2Cc3ccccc3C[C@H]2O)CC1 | 76
